The nature of this series: recombinant UMI read abundance after kanamycin selection (control-corrected) (log10(CPM+1)); higher = more efficient recombination; extreme values may be limits of the assay; sequences stand for … in AGTGCAGAGAAAATCGGCCAGTTTTCTCTGCCTGCAGTCCGCATGCCGTGGGACCCCTTGGGTTCTAACCTGTTGCCTAGATTTATGCAGCGGACTGCCTTTCTCCCAAAGTGATAAACCGG…AGGTTGGTTTCACT; site = the 11-nt donor. Summed up: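 Values are reported as log10(CPM+1), obtained by converting sequencing counts to CPM, averaging replicates and scaling by control-derived factors. The counts came from recombinant UMIs amplified by PCR across the donor–target junction. These UMIs came from a pooled Escherichia coli screen of donor and donor-binding-loop pairs for the IS621 bridge recombinase, plated with IPTG (0.07 mM) plus kanamycin or left unselected, in two replicates each.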
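Further: IS621 bridge recombinase in Escherichia coli cells against a fixed T5 target plasmid.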

With “GCGAAAACATGGACCGGTTTTCCCGGTAATCCGTATTTGCT (site GCGAATACTAG)”, the “recombinant UMI read abundance (log10)” value came out at 0.
With “GCGAAAACATGGACCGGTTTTCCCGGTAATCCGTATTTGCT (site GCGACAACTAG)” the figure was 0.0316.
The same measure for “GCGAAAACATGGACCGGTTTTCCCGGTAATCCGTATTTGCT (site GCGAGAACTAG)”: 0.
On to “GCGAAAACATGGACCGGTTTTCCCGGTAATCCGTATTTGCT (site GCGATAACTAG)”, for which the “recombinant UMI read abundance (log10)” value stood at 0.603.
Regarding “GCGAAAACATGGACCGGTTTTCCCGGTAATCCGTATTTGCT (site GCGCAAACTAG)”, the “recombinant UMI read abundance (log10)” value is 0.
With “GCGAAAACATGGACCGGTTTTCCCGGTAATCCGTATTTGCT (site GCGGAAACTAG)” the figure was 1.21; with “GCGAAAACATGGACCGGTTTTCCCGGTAATCCGTATTTGCT (site GCGTAAACTAG)”, 1.73.
As for “GCGAAAACATGGACCGGTTTTCCCGGTAATCCGTATTTGCT (site GCTAAAACTAG)”, the “recombinant UMI read abundance (log10)” value came to 0.
As to “GCGAAAACATGGACCGGTTTTCCCGGTAATCCGTATTTGCT (site GGGAAAACTAG)”, the “recombinant UMI read abundance (log10)” value is 0.
The same measure for “GCGAAAACATGGACCGGTTTTCCCGGTAATCCGTATTTGCT (site GTGAAAACTAG)”: 0; for “GCGAAAACATGGACCGGTTTTCCCGGTAATCCGTATTTGCT (site TCGAAAACTAG)”: 0.
Consider “GCGAAGCCATGGACCGGTTTTCCCGGTAATCCGTATTTGCG (site GCGAAGCCTCA)”, for which the “recombinant UMI read abundance (log10)” value is 0.0182.
The same measure for “GCGAAGCCATGGACCGGTTTTCCCGGTAATCCGTATTTGCG (site GCGAAGCCTCC)”: 0.0276.
As for “GCGAAGCCATGGACCGGTTTTCCCGGTAATCCGTATTTGCG (site GCGAAGCCTCG)”, the “recombinant UMI read abundance (log10)” value stood at 0.845.
Turning to “GCGAAGCCATGGACCGGTTTTCCCGGTAATCCGTATTTGCG (site GCGAAGCCTCT)”, the “recombinant UMI read abundance (log10)” value is 0.455.
With “GCGAAGGCATGGACCGGTTTTCCCGGTAATCCGTATTTGGG (site GCGAAGACTCC)”, the “recombinant UMI read abundance (log10)” value came out at 0.255.
The same measure for “GCGAAGGCATGGACCGGTTTTCCCGGTAATCCGTATTTGGG (site GCGAAGCCTCC)”: 0.00939; for “GCGAAGGCATGGACCGGTTTTCCCGGTAATCCGTATTTGGG (site GCGAAGGCTCC)”: 0.562.
With “GCGAAGGCATGGACCGGTTTTCCCGGTAATCCGTATTTGGG (site GCGAAGTCTCC)” the figure was 0.779; with “GCGAATACATGGACCGGTTTTCCCGGTAATCCGTATTTGCT (site GCGAAAACTAG)”, 0.
The same measure for “GCGAATACATGGACCGGTTTTCCCGGTAATCCGTATTTGCT (site GCGAACACTAG)”: 0; for “GCGAATACATGGACCGGTTTTCCCGGTAATCCGTATTTGCT (site GCGAAGACTAG)”: 0; for “GCGAATACATGGACCGGTTTTCCCGGTAATCCGTATTTGCT (site GCGAATACTAG)”: 0.
On to “GCGAATGCATGGACCGGTTTTCCCGGTAATCCGTATTTGGA (site GCGAATGCTTC)”, for which the “recombinant UMI read abundance (log10)” value was determined as 1.42.
With “GCGACGCCATGGACCGGTTTTCCCGGTAATCCGTATTTGGG (site GCGAAGCCTCC)” the figure was 0.0164.
The same measure for “GCGACGCCATGGACCGGTTTTCCCGGTAATCCGTATTTGGG (site GCGACGCCTCC)”: 0.00484; for “GCGACGCCATGGACCGGTTTTCCCGGTAATCCGTATTTGGG (site GCGAGGCCTCC)”: 0.0192.
With “GCGACGCCATGGACCGGTTTTCCCGGTAATCCGTATTTGGG (site GCGATGCCTCC)” the figure was 0.00415; with “GCGATAACATGGACCGGTTTTCCCGGTAATCCGTATTTGCT (site GCGAAAACTAG)”, 0.
As to “GCGATAACATGGACCGGTTTTCCCGGTAATCCGTATTTGCT (site GCGACAACTAG)”, the “recombinant UMI read abundance (log10)” value was found to be 0.00488.
The same measure for “GCGATAACATGGACCGGTTTTCCCGGTAATCCGTATTTGCT (site GCGAGAACTAG)”: 0.
Turning to “GCGATAACATGGACCGGTTTTCCCGGTAATCCGTATTTGCT (site GCGATAACTAG)”, the “recombinant UMI read abundance (log10)” value was 2.43.
With “GCGATACCATGGACCGGTTTTCCCGGTAATCCGTATTTGAT (site GCGATACCTAT)” the figure was 0.
As to “GCGATTCCATGGACCGGTTTTCCCGGTAATCCGTATTTGTA (site GCGATTCCTTA)”, the “recombinant UMI read abundance (log10)” value stood at 1.49.
